We go through three compounds from article PMC12006171, “Marsupial cathelicidins: characterization, antimicrobial activity and evolution in this unique mammalian lineage” (Frontiers in Immunology, 2025).

≈ marks a conversion by molar mass, not a printed value. Where two headings read alike, the source gives them in different places. Where a SMILES comes first, the peptide text is derived from it.

Common to all, as to format: cell-based
In one assay the test system is Candida krusei ATCC 6258. In words: microbe, parasite or virus in culture. In a few lines: (§1)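 Endpoint is visible-growth inhibition (MIC) after 35°C, 20–24 h incubation. Yeast medium was RPMI-1640 MOPS; bacterial medium was Mueller Hinton broth, with or without divalent cations and lysed horse blood. Final peptide range 64-0.125μg/mL.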
Assay [1] concerns Candida parapsilosis ATCC 22019. The experiment in a line: microbe, parasite or virus in culture. The settings on record: for MIC: Lodderomyces parapsilosis, ATCC22019. In a few lines:
as §1

Assay [2] has as its system Candida albicans Clinical isolate - human. The experiment in a line: microbe, parasite or virus in culture. In a few lines:
as §1

Assay [3] deals with Streptococcus pneumoniae ATCC 49619. In words: microbe, parasite or virus in culture. The settings on record: ATCC 49619; read-out: MIC S. pneumoniae ATCC. In a few lines:
as §1

Assay [4] relates to Streptococcus agalactiae Clinical isolate - animal. The experiment in a line: microbe, parasite or virus in culture. To be noted: clinical isolate - animal; read-out: MIC S. agalactiae. In a few lines: as §1
Assay [5] has as its system Streptococcus agalactiae ATCC 12386. In words: microbe, parasite or virus in culture. To be noted: ATCC 12386; read-out: MIC S. agalactiae ATCC. In a few lines: as §1
In assay [6] the test system is Staphylococcus aureus clinical isolate – animal, penicillin-resistant (PRSA). The settings on record: clinical isolate – animal, penicillin-resistant (PRSA). On the procedure:
(§2) Antimicrobial testing of 78 cathelicidin MPs was performed in two phases as outlined in Figure 1 . In phase I, 40 peptides (27 extant and 13 ancestral) were selected for testing based on rank (outlined above) and similarity to published marsupial cathelicidins with known antimicrobial activity ([33], [41]–[43]). These peptides were tested against nine bacteria (Staphylococcus aureus ATCC 29213 and clinical isolate, Escherichia coli ATCC 25922 and clinical isolate, Pseudomonas aeruginosa ATCC 27853 and clinical isolate, Streptococcus agalactiae ATCC 12386 and clinical isolate, Streptococcus pneumoniae ATCC 49619) and three fungi (Candida krusei ATCC 6258, Candida parapsilosis ATCC 22019, and Candida albicans clinical isolate). Details regarding these strains are available in Supplementary Table 4 . The antimicrobial activity of cathelicidins was determined as the minimum inhibitory concentration (MIC), which was the lowest concentration of cathelicidin that prevented visible bacterial or fungal growth, relative to the negative control. […] Minimum bactericidal concentration (MBC) and/or minimum fungicidal concentration (MFC) was conducted to determine microbicidal versus static action. Activity against S. aureus ATCC, E. coli ATCC, and Pseudomonas aeruginosa ATCC 27853 was examined in the presence of divalent cations to determine the impact of inhibitors.
(§3) Antimicrobial activity was determined using a broth microdilution susceptibility assay in 96 well polypropylene plates according to Clinical Laboratory Standards Institute guidelines M07-A and M26A as described previously ([33], [42], [43]). The bacterial and fungal isolates from humans and animals used in this study are outlined in Supplementary Table 4 . Only yeasts were included in the panel of fungi as they have been used in the susceptibility testing of eutherian ([3], [81]–[83]) and other marsupial cathelicidins previously ([33], [42], [43]). Cathelicidin mature peptides were solubilized in DMSO and serially diluted in duplicate from 128-0.25μg/mL in a final volume of 100µL. For bacteria, cathelicidins were diluted in Mueller Hinton Broth (MHB) with or without 10% lysed horse blood, and with (MH II B) or without (MHB) calcium and magnesium cations. For fungi, cathelicidins were diluted in Roswell Park Memorial Institute medium (RPMI)-1640 MOPS. Ampicillin or tetracycline were included as a positive control for Gram-positive and -negative bacteria respectively, while amphotericin B was used for fungi. A media-only negative control and growth control (no cathelicidin) were also included on each plate. Bacteria were sub-cultured on Muller Hinton agar (MHA) or sheep blood agar (BA), and fungi on Sabouraud dextrose agar (SAB), 20–24 hours prior to the test. Colonies were suspended in saline, the concentration adjusted to a 0.5 McFarland standard, and then diluted in media to a concentration of 1.0 x 10^6 cells/mL. Then, 100μL was added to each well of the cathelicidin dilution plate, giving a final inoculum density of 5 x 10^5 CFU/mL and cathelicidin concentration of 64-0.125μg/mL. Colony counts were performed on MHA/BA/SAB to confirm inoculum density. All plates were incubated at 35°C for 20–24 hours, depending on the strain.
(§4) Colonies were counted and compared to the colony count of the starting inoculum.

Assay [7] has as its system Staphylococcus aureus clinical isolate – animal, methicillin-resistant (MRSA). The settings on record: clinical isolate – animal, methicillin-resistant. On the procedure: as §2, §3, §4
Assay [8] relates to Escherichia coli clinical isolate - animal. The experiment in a line: microbe, parasite or virus in culture. To be noted: clinical isolate - animal. In a few lines: (§5)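 MIC read visually as the lowest peptide concentration with no growth versus negative control, after 20–24 h at 35°C. Peptides were tested in duplicate 64-0.125μg/mL (final) in MHB or cation-supplemented MH II B, some with 10% lysed horse blood; inoculum 5 x 10^5 CFU/mL.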

Assay [9] concerns Pseudomonas aeruginosa ATCC 27853. The experiment in a line: microbe, parasite or virus in culture. The settings on record: ATCC 27853; read-out: MIC P. aeruginosa ATCC. In a few lines: as §5
Assay [10] concerns Pseudomonas aeruginosa clinical isolate - animal. The experiment in a line: microbe, parasite or virus in culture. The settings on record: clinical isolate - animal. In a few lines:
as §5

Assay [11] deals with Escherichia coli ATCC 25922. The experiment in a line: microbe, parasite or virus in culture. The settings on record: ATCC 25922. In a few lines: as §5
Assay [12] relates to Staphylococcus aureus clinical isolate - animal. In words: microbe, parasite or virus in culture. The settings on record: clinical isolate - animal. In a few lines:
as §5

Assay [13] deals with Staphylococcus aureus ATCC 29213. The experiment in a line: microbe, parasite or virus in culture. To be noted: ATCC 29213. In a few lines: as §5
[14] abbreviates: ATCC 6258, read-out: MIC C. krusei ATCC.

`C[C@@H]1[C@H](O)[C@@H](C)/C=C/C=C/C=C/C=C/C=C/C=C/C=C/[C@H](O[C@@H]2O[C@H](C)[C@@H](O)[C@H](N)[C@@H]2O)C[C@@H]2O[C@](O)(C[C@@H](O)C[C@@H](O)[C@H](O)CC[C@@H](O)C[C@@H](O)CC(=O)O[C@H]1C)C[C@H](O)[C@H]2C(=O)O` [Amphotericin B, reference compound]: the MIC in the assay on Candida krusei ATCC 6258 (Pichia kudriavzevii, ATCC6258, RPMI-1640 MOPS, 5 x 10^5 CFU/mL, 35°C 20–24 hours, duplicate) was 1 µg/mL; in the assay with Candida krusei ATCC 6258 (Pichia kudriavzevii, ATCC6258, µM version of Table 4, read-out: MIC C. krusei ATCC), 1 µM; in assay [1] (RPMI-1640 MOPS, 5 x 10^5 CFU/mL, 35°C 20–24 hours, duplicate), 0.5 µg/mL; in assay [1] (µM version of Table 4, read-out: MIC C. parapsilosis ATCC), 0.5 µM; in assay [2] (Candida albicans, clinical isolate, RPMI-1640 MOPS, 5 x 10^5 CFU/mL, 35°C 20–24 hours, duplicate), 0.5 µg/mL; in assay [2] (Candida albicans, clinical isolate, µM version of Table 4, read-out: MIC C. albicans), 0.5 µM.

`CC[C@H](C)[C@H](NC(=O)[C@H](CCCNC(=N)N)NC(=O)[C@@H](N)CCCCN)C(=O)NCC(=O)N[C@@H](Cc1ccccc1)C(=O)NCC(=O)N[C@@H](CC(C)C)C(=O)N[C@@H](Cc1ccccc1)C(=O)N[C@@H](Cc1c[nH]c2ccccc12)C(=O)N[C@@H](CC(=O)O)C(=O)NCC(=O)N[C@@H](CC(C)C)C(=O)N[C@@H](CCCNC(=N)N)C(=O)N[C@@H](CCCCN)C(=O)N[C@@H](CC(C)C)C(=O)NCC(=O)N[C@@H](CC(N)=O)C(=O)N[C@@H](CCCNC(=N)N)C(=O)N[C@H](C(=O)N[C@@H](CCCCN)C(=O)N[C@@H](CC(N)=O)C(=O)N[C@@H](CCCNC(=N)N)C(=O)N[C@H](C(=O)N[C@@H](CCCNC(=N)N)C(=O)N[C@@H](CC(=O)O)C(=O)N[C@@H](Cc1ccccc1)C(=O)N[C@@H](Cc1ccccc1)C(=O)N[C@@H](CO)C(=O)N[C@@H](CCCCN)C(=O)N[C@@H](Cc1ccccc1)C(=O)N[C@@H](CC(C)C)C(=O)NCC(=O)O)[C@@H](C)CC)[C@@H](C)CC` [MAP9] (H-KRIGFGLFWDGLRKLGNRIKNRIRDFFSKFLG-OH): the “MFC C. krusei ATCC” value with Candida krusei ATCC 6258 (ATCC 6258) is 16.5 µM (≈ 63.6 µg/mL). Besides, the MIC in the assay with Candida krusei ATCC 6258 (setting [14]) came out at 8.2 µM. In assay [1] (ATCC 22019), this compound displayed an MFC C. parapsilosis ATCC of more than 16.5 µM and an MIC C. parapsilosis ATCC of 16.5 µM (≈ 63.6 µg/mL). Further, the MIC in assay [2] (Clinical isolate - human, read-out: MIC C. albicans) was more than 16.5 µM.

In the case of `CC[C@H](C)[C@H](NC(=O)[C@H](CCCNC(=N)N)NC(=O)[C@@H](N)CCCCN)C(=O)NCC(=O)N[C@@H](CC(C)C)C(=O)NCC(=O)NCC(=O)N[C@@H](CC(C)C)C(=O)N[C@H](C(=O)N[C@@H](CCCNC(=N)N)C(=O)N[C@@H](CCCNC(=N)N)C(=O)N[C@H](C(=O)N[C@@H](Cc1c[nH]c2ccccc12)C(=O)N[C@@H](CC(N)=O)C(=O)N[C@@H](CCCNC(=N)N)C(=O)N[C@H](C(=O)N[C@@H](CCCNC(=N)N)C(=O)N[C@@H](CCCNC(=N)N)C(=O)N[C@@H](CCCNC(=N)N)C(=O)NCC(=O)O)[C@@H](C)CC)[C@@H](C)CC)C(C)C` [SmcrCath3] (H-KRIGLGGLVRRIWNRIRRRG-OH), the MIC in assay [3] was more than 26.3 µM; in the assay on Candida krusei ATCC 6258 (setting [14]), 6.5 µM; in assay [4], more than 26.3 µM; in [5], more than 26.3 µM; in [8], 3.2 µM (≈ 7.79 µg/mL); in [9] it was more than 26.3 µM. The results for the MIC in assay [10] (read-out: MIC P. aeruginosa), in assay [11] (read-out: MIC E. coli ATCC) and in [11] (read-out: MIC in the presence of cations E. coli ATCC) were 26.3 µM (≈ 64 µg/mL), 6.5 µM (≈ 15.8 µg/mL) and 13.1 µM, respectively. The “MFC C. albicans” value in assay [2] (Clinical isolate - human) worked out at 26.3 µM (≈ 64 µg/mL). Moreover, the “MBC PRSA” value in assay [6] was 6.5 µM (≈ 15.8 µg/mL). Also, in assay [6], the “MIC PRSA” value is 3.2 µM (≈ 7.79 µg/mL). For the same compound, the MBC MRSA in assay [7] is 6.5 µM (≈ 15.8 µg/mL). In [7], this compound showed an MIC MRSA of 6.5 µM (≈ 15.8 µg/mL). Besides, the “MBC E. coli” value in assay [8] is 6.5 µM (≈ 15.8 µg/mL). Also, the “MIC in the presence of cations E. coli” value in assay [8] was 6.5 µM. Further, in assay [10], the “MBC P. aeruginosa” value is reported as more than 26.3 µM. In addition, the “MBC E. coli ATCC” value in assay [11] is listed as 6.5 µM (≈ 15.8 µg/mL). Further, the “MBC S. aureus” value in [12] was 6.5 (6.5)^6.5 µM. Further, in assay [12], the “MIC S. aureus” value is recorded as 6.5 (6.5)^6.5 µM. In assay [12], the “MIC in the presence of cations S. aureus” value was 6.5 (6.5)^6.5 µM. Moreover, the “MBC S. aureus ATCC” value in [13] is given as 6.5 (6.5)^6.5 µM. Also, the “MIC S. aureus ATCC” value in assay [13] is listed as 6.5 (6.5)^6.5 µM. In addition, in [13], the “MIC in the presence of cations S. aureus ATCC” value is 6.5 (6.5)^6.5 µM.
